Assay: excess molar enthalpy (molar enthalpy of mixing); xn = mol fraction of the nth substance listed
Settings: 308.15 K, 101 kPa, Liquid, Flow calorimetry

C1COCCN1 [tetrahydro-1,4-oxazine] + C1COCCO1
Settings | excess molar enthalpy [kcal/mol]
x2 = 0.108 | 0.0296
x2 = 0.201 | 0.0507
x2 = 0.303 | 0.0681
x2 = 0.403 | 0.0772
x2 = 0.506 | 0.0791
x2 = 0.6 | 0.0753
x2 = 0.703 | 0.0645
x2 = 0.803 | 0.0495
x2 = 0.905 | 0.0272

C1COCCN1 [tetrahydro-1,4-oxazine] + C1CCOCC1
Settings | excess molar enthalpy [kcal/mol]
x2 = 0.101 | 0.039
x2 = 0.199 | 0.0703
x2 = 0.3 | 0.0946
x2 = 0.401 | 0.109
x2 = 0.501 | 0.115
x2 = 0.6 | 0.11
x2 = 0.702 | 0.0963
x2 = 0.8 | 0.0731
x2 = 0.899 | 0.0411

C1COCCN1 [tetrahydro-1,4-oxazine] + C1CCCCC1
Settings | excess molar enthalpy [kcal/mol]
x2 = 0.1 | 0.146
x2 = 0.201 | 0.261
x2 = 0.3 | 0.354
x2 = 0.401 | 0.418
x2 = 0.5 | 0.446
x2 = 0.6 | 0.436
x2 = 0.7 | 0.392
x2 = 0.801 | 0.312
x2 = 0.9 | 0.195

— the NIST ThermoML archive (doi:10.1021/je9010097)
